Consider two molecules from patent US8536157B2, “Non-steroidal compounds” (The University of Melbourne, priority 2007, dated 2013).

By IC50 is commonly meant the concentration at which inhibition is half-maximal. Low values mean greater potency in that assay, high ones weaker potency in that assay. What is called melting point is the temperature, or range, at which the solid turns liquid.

Data set [1] deals with human lung parenchymal fibroblasts, pFb. Put plainly: Proliferation of human lung parenchymal fibroblasts in response to bFGF (cell counting). Conditions: Fibroblast, given as Log IC50 (negative values), bFGF 300 pM, 48 h. The data set is classed as cell-based. The source says: (§1) 3. Effects of Compounds on the Proliferation of Cells in Response to the Proliferative Stimulus of Either Thrombin (Human Airway Smooth Muscle) or Basic Fibroblast Growth Factor (bFGF)(Human Lung Parenchymal Fibroblasts, pFb)
The effects of compounds of the present invention on the proliferation of cells in response to the proliferative stimulus of either thrombin (human airway smooth muscle) or basic fibroblast growth factor (bFGF)(human lung parenchymal fibroblasts, pFb) were investigated. Cells were seeded onto 6-well plates at a density of 1.5×10^4 cells cm^2, made quiescent by removal of serum-containing media for 24 hours and then stimulated for 48 h with either thrombin (0.3 U/ml) or bFGF (300 pM). The test compounds were pre-incubated with HASM or pFb cells for 30 minutes before the addition of thrombin. At the end of the 48 hour incubation period, cells were detached from the culture plate by trypsin (0.5% w/v in PBS containing 1 mM EDTA), incubated for 5 minutes at ambient temperature in PBS containing 0.5% (w/v) trypan blue, washed twice (2% FCS in PBS), isolated by centrifugation (12,000×g, 5 min) and resuspended in 200 μl 2% FCS in PBS for counting in a haemocytometer chamber. […]

The subject of data set [2] is human airway smooth muscle (HASM) cells. Nature of the data set: Proliferation of human airway smooth muscle cells in response to thrombin (cell counting). It counts as cell-based. Conditions: given as Log IC50 (negative values), thrombin 0.3 U/ml, 48 h, compound pre-incubated 30 minutes.
Description: as §1
The effects of compounds of the present invention on the proliferation of cells in response to the proliferative stimulus of either thrombin (human airway smooth muscle) or basic fibroblast growth factor (bFGF)(human lung parenchymal fibroblasts, pFb) were investigated. Cells were seeded onto 6-well plates at a density of 1.5×10^4 cells cm^2, made quiescent by removal of serum-containing media for 24 hours and then stimulated for 48 h with either thrombin (0.3 U/ml) or bFGF (300 pM). The test compounds were pre-incubated with HASM or pFb cells for 30 minutes before the addition of thrombin. At the end of the 48 hour incubation period, cells were detached from the culture plate by trypsin (0.5% w/v in PBS containing 1 mM EDTA), incubated for 5 minutes at ambient temperature in PBS containing 0.5% (w/v) trypan blue, washed twice (2% FCS in PBS), isolated by centrifugation (12,000×g, 5 min) and resuspended in 200 μl 2% FCS in PBS for counting in a haemocytometer chamber.
Human airway smooth muscle (HASM) cells were cultured from macroscopically normal bronchi (0.5-2 cm diameter) obtained from lung resection or heart-lung transplant specimens provided by the Alfred Hospital (Melbourne) according to methods published in detail previously (Fernandes et al., 1999).
Approximately 0.1 g of smooth muscle was stripped from the wall of the bronchus for each cell culture. Dissected tissue was immersed in Dulbecco's modified Eagle's medium (DMEM) (Flow Laboratories, Scotland), supplemented with 100 U/mL penicillin G (CSL, Australia) and 100 μg/mL streptomycin (CSL, Australia). The tissue was rinsed in phosphate buffered saline (PBS; Oxoid, England) and the airway smooth muscle was chopped into 2 mm^3 pieces and digested for 2 hours in DMEM containing elastase (0.5 mg/mL: Worthington Biochemical, USA) followed by a 12 hour incubation in DMEM containing collagenase (1 mg/mL) (Worthington Biochemical, USA), at 37° C. with agitation.
The resulting cell suspension was centrifuged and washed three times in phosphate buffered saline (PBS). Following the last centrifugation step, the cells were resuspended in 25 mL of DMEM supplemented with L-glutamine (2 mM: Sigma, USA), penicillin G (100 U/mL), streptomycin (100 μg/mL), amphotericin B (2 μg/mL: Wellcome, UK) and heat-inactivated FCS (10% v/v: CSL, Australia) and seeded into 25 cm^2 culture flasks. The primary isolates were incubated for 7 to 14 days to reach confluence. […]

Data set [3] has as its target proteins in rat lung membranes. Put plainly: Competitive binding assay with [3H]-CP2117 on rat lung membranes (RLM). The note with it: given as Log IC50 (negative values); displacement of 10 nM [3H]-CP2117, overnight at 4° C.; ND- not detected.
Data set [4] concerns PGE2 release in J774 macrophages. Put plainly: PGE2 release from LPS/IFNγ-stimulated J774 macrophages (radioimmunoassay). The note with it: Mus musculus, J774, 24 h, 30 min pre-treatment, 24 hour incubation. It counts as cell-based, murine.
For data set [5] the following is noted: see WO 2004/101595; cited from earlier work.

`COc1ccc(/C(C)=N/OCc2ccc([N+](=O)[O-])cc2)cc1O` [CP30218, (E)-3′-Hydroxy-4′-methoxyacetophenone O-4-Nitrobenzyl Oxime]: the melting point was in the range of 105 to 105.7 °C. The same molecule gave an IC50 in data set [1] of 6.61 nM. In addition, the IC50 in data set [2] was 5890 nM. Moreover, the “Log IC50 RLM binding” value in data set [3] is given as −6.44. In data set [4] (1 μM, read-out: Effects on PGE2 release in J774 macrophages at 1 μM as a % of LPS/IFNγ control, mean), the activity at 1 µM stood at 218%. Further, the activity at 10 µM in data set [4] (l0 μM, read-out: Effects on PGE2 release in J774 macrophages at l0 μM as a % of LPS/IFNγ control, mean) amounted to 188%.

Regarding `COc1cc2c(cc1O)C(=NOCc1ccc([N+](=O)[O-])cc1)C[C@@H]1[C@@H]2CC[C@]2(C)[C@@H](O)CC[C@@H]12` [CP-2117, 2-methoxy-6-(4-nitrobenzyloxyimino)estradiol], the “anti-inflammatory activity in vitro” value in data set [5] is “anti-inflammatory activity”.
